Assay results published in patent US5470855A, “Certain heterocyclic thiazole derivatives and their therapeutic use” (Sanofi, priority 1989, dated 1995).

Columns and labels:
guinea pig = test: PAF-induced bronchospasm in the guinea pig; assay type: in vivo
mouse = test: protection against PAF-induced lethal systemic shock in the mouse; assay type: in vivo; details: oral dose of 5 mg/kg, PAF 100 μg/kg
From the text: Haemostas, 56(1) 40-44 (1986) and that of protection against lethal systemic shock in the mouse, which is described in J. Pharmacol. Exp. Ther 247(2) 617-23 (1988).

rabbit platelets = test: inhibition of the aggregation of rabbit platelets induced by the PAF-acether; assay type: cell-based; details: Oryctolagus cuniculus, Platelet, PAF introduced into the medium at 4×10^-10 M, read-out: IC50 (concentration inhibiting 50% of the aggregation induced by the PAF)
From the text: Thus in vitro it is possible to study the inhibition of the aggregation of rabbit platelets induced by the PAF-acether according to the method described in Thrombosis Research 41 211-226 (1986). […] Therap.

Row | Structure (SMILES) | protection from the lethal systemic shock induced by the PAF (mouse) | also measured
1 | CC(C)c1cc(C(C)C)c(-c2csc(N(CCN(C)C)Cc3cccnc3)n2)c(C(C)C)c1 [Example 2] |  | duration of complete inhibition of the bronchospasm (guinea pig; IV dose of 1 mg/kg): more than 96 hours; duration of complete inhibition of the bronchospasm (guinea pig; oral dose of 3 mg/kg): more than 96 hours
2 | Cc1cc(C)c(-c2csc(N(CCN(C)C)Cc3cccnc3)n2)c(C)c1 [Example 14, 2-(N-[2-N',N'-dimethylaminoethyl]N-[3-pyridylmethyl]amino)4-(2,4,6-trimethylphenyl)thiazole] | protect the mouse from the lethal systemic shock | 
3 | Cc1sc(N(CCN(C)C)Cc2cccnc2)nc1-c1ccc(Cl)cc1Cl [Example 50, 2-(N-[2-N',N'-dimethylaminoethyl]N-[3-pyridylmethyl]amino)4-(2,4-dichlorophenyl) 5-methyl thiazole] | protect the mouse from the lethal systemic shock | 
4 | Cc1oc(N(CCN(C)C)Cc2cccnc2)nc1-c1ccc(Cl)cc1Cl [Example 79, 2(N-[2-N',N'-dimethylaminoethyl]N-[3-pyridylmethyl]amino) 4-(2,4-dichlorophenyl)5-methyl oxazole] | protect the mouse from the lethal systemic shock | 
5 | CC(C)c1cc(C(C)C)c(-c2nc(N(CCN(C)C)Cc3cccnc3)sc2Br)c(C(C)C)c1 [Example 90, 2-(N-[2-N',N'-dimethylaminoethyl]N-[3-pyridylmethyl]amino) 5-bromo 4-(2,4,6-triisopropylphenyl) thiazole] | protect the mouse from the lethal systemic shock | 
6 | CC(C)c1cc(C(C)C)c(-c2nc(N(CCN(C)C)Cc3cccnc3)sc2Cl)c(C(C)C)c1 [Example 91, 2-(N-[2-N',N'-dimethylaminoethyl]N-[3-pyridylmethyl]amino) 5-chloro 4-(2,4,6-triisopropylphenyl)thiazole] | protect the mouse from the lethal systemic shock | 
7 | Cc1nnc2n1-c1sc(CCC(=O)N3CCOCC3)cc1C(c1ccccc1Cl)=NC2 [WEB 2086] |  | IC50 (rabbit platelets): 50 nM
